Assay results as given in patent US20250353891A1 (MEDIMMUNE LIMITED, priority 2022, published 2025).
pEC50: −log10 of the molar value. Starred links: 1 amine or outer side, 2 acyl side, 3 side chain; linkers in the order of their positions; H or OH if unused. Non-standard residues stand in square brackets, D forms with d. Residues, ends and D or L forms follow the SMILES beside them. Groups on a side chain read outwards from the residue. *: point of attachment. X1 = CC(C)(CCNC(=N)N)[C@H](N[*:1])C(=O)[*:2]; C18 diacid = O=C(O)CCCCCCCCCCCCCCCCC(=O)*; γGlu = O=C(O)[C@H](CCC(=O)[*:2])N[*:1]; Stearoyl = CCCCCCCCCCCCCCCCCC(=O)*; Palmitoyl = CCCCCCCCCCCCCCCC(=O)*; αMeF = C[C@](N)(Cc1ccccc1)C(=O)O; Myristoyl = CCCCCCCCCCCCCC(=O)*; PEG2 = NCCOCCOCCC(=O)O; AEEA = NCCOCCOCC(=O)O; Aib = CC(C)(N)C(=O)O

Molecular target: human GLP-1 receptor (hGLP-1R) (Homo sapiens, UniProt P43220)
Test: cAMP production (HTRF) in CHO cells expressing hGLP-1R
Format: cell-based
Design: expressed in transfected cells
Conditions: for % Relative Potency Ratio: Table 6, % GLP-1R activity relative to GLP-1 / % GlucR activity relative to glucagon; for pEC50: Table 6, peptides modified at position 17, cAMP in CHO hGLP-1R cells, geometric mean, read-out: hGLP-1R EC50
Protocol: Cells were re-suspended in assay buffer at a batch-dependent optimized concentration (typically hGLP-1R cells at 1×10^5 cells/mL, hGCGR cells at 2×10^5 cells/mL).
Cells were added to the assay plate using a multidrop dispenser and incubated at room temperature for 30 minutes before measuring the cAMP level using a cAMP dynamic 2 homogeneous time resolved Fluorescence (HTRF) kit (Cisbio Bioassays #62AM4PEJ) following the two-step protocol as per manufacturer's recommendations. In brief, anti-cAMP cryptate (donor fluorophore) and cAMP-d2 (acceptor fluorophore) were made up separately by diluting each 1 in 20 in conjugate and lysis buffer provided in the kit. Anti-CAMP cryptate was added to all wells of the assay plate, followed by cAMP-d2 added to all wells except non-specific binding (NSB) wells (to which conjugate and lysis buffer was added).
Data was transformed to % Delta F as described in the manufacturer's guidelines and analyzed by 4-parameter logistic fit to determine EC50 values.

Sequence of human GLP-1 receptor (hGLP-1R) (P43220 24-463): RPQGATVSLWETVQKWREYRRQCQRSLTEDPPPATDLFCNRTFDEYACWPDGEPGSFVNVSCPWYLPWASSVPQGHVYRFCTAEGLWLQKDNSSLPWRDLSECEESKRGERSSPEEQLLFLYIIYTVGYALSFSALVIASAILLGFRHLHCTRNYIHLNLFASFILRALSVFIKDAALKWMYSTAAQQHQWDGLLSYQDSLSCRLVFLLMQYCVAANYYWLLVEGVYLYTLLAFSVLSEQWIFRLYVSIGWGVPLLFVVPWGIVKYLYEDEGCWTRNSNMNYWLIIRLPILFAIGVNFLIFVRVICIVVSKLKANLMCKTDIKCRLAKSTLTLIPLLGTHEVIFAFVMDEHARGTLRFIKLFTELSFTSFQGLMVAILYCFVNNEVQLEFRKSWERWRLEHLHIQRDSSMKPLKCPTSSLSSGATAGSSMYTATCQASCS

% Relative Potency Ratio | pEC50 | SMILES
11.8 |  | CCCCCCCCCCCCCCCCCC(=O)N[C@@H](CCC(=O)N[C@@H](CCC(=O)NCCOCCOCCC(=O)NCCOCCOCCC(=O)NCCCC[C@H](NC(=O)[C@H](CO)NC(=O)[C@H](CC(=O)O)NC(=O)[C@H](CC(C)C)NC(=O)[C@](C)(Cc1ccccc1)NC(=O)[C@H](CCCCN)NC(=O)[C@H](CO)NC(=O)[C@@H](NC(=O)[C@H](CC(=O)O)NC(=O)[C@H](CO)NC(=O)[C@@H](NC(=O)[C@](C)(Cc1ccccc1)NC(=O)[C@H](CO)NC(=O)CNC(=O)[C@H](CCC(N)=O)NC(=O)C(C)(C)NC(=O)[C@@H](N)Cc1c[nH]cn1)[C@@H](C)O)C(C)C)C(=O)N[C@H](C(=O)N[C@@H](C)C(=O)N[C@@H](CCC(N)=O)C(=O)N[C@@H](CC(=O)O)C(=O)N[C@@](C)(Cc1ccccc1)C(=O)N[C@H](C(=O)N[C@@H](CCC(=O)O)C(=O)NC(C)(C)C(=O)N[C@@H](CC(C)C)C(=O)N[C@@H](CCC(=O)O)C(=O)N[C@@H](C)C(=O)NCC(=O)NCC(N)=O)C(C)C)C(C)(C)CCNC(=N)N)C(=O)O)C(=O)O [Peptide 74] (H-H[Aib]QGS[αMeF]TSDVSK[αMeF]LDSK([PEG2-PEG2-γGlu-γGlu-Stearoyl])[X1]AQD[αMeF]VE[Aib]LEAGG-NH2; N-terminus assumed)
18.3 |  | CCCCCCCCCCCCCCCCCC(=O)N[C@@H](CCC(=O)N[C@@H](CCC(=O)NCCOCCOCCC(=O)NCCOCCOCCC(=O)NCCCC[C@H](NC(=O)[C@H](CO)NC(=O)[C@H](CC(=O)O)NC(=O)[C@H](CC(C)C)NC(=O)[C@](C)(Cc1ccccc1)NC(=O)[C@H](CCCCN)NC(=O)[C@H](CO)NC(=O)[C@@H](NC(=O)[C@H](CC(=O)O)NC(=O)[C@H](CO)NC(=O)[C@@H](NC(=O)[C@](C)(Cc1ccccc1)NC(=O)[C@H](CO)NC(=O)CNC(=O)[C@H](CCC(N)=O)NC(=O)[C@H](CO)NC(=O)[C@@H](N)Cc1c[nH]cn1)[C@@H](C)O)C(C)C)C(=O)N[C@@H](C)C(=O)N[C@@H](C)C(=O)N[C@@H](CCC(N)=O)C(=O)N[C@@H](CC(=O)O)C(=O)N[C@@](C)(Cc1ccccc1)C(=O)N[C@H](C(=O)N[C@@H](CCC(N)=O)C(=O)NC(C)(C)C(=O)N[C@H](C(=O)N[C@@H](C)C(=O)N[C@@H](CC(N)=O)C(=O)N[C@H](C(N)=O)[C@@H](C)O)[C@@H](C)CC)C(C)C)C(=O)O)C(=O)O [Peptide 82] (H-HSQGS[αMeF]TSDVSK[αMeF]LDSK([PEG2-PEG2-γGlu-γGlu-Stearoyl])AAQD[αMeF]VQ[Aib]IANT-NH2; N-terminus assumed)
8.0 |  | CCCCCCCCCCCCCCCC(=O)N[C@@H](CCC(=O)N[C@@H](CCC(=O)NCCOCCOCCC(=O)NCCOCCOCCC(=O)NCCCC[C@H](NC(=O)[C@H](CO)NC(=O)[C@H](CC(=O)O)NC(=O)[C@H](CC(C)C)NC(=O)[C@](C)(Cc1ccccc1)NC(=O)[C@H](CCCCN)NC(=O)[C@H](CO)NC(=O)[C@@H](NC(=O)[C@H](CC(=O)O)NC(=O)[C@H](CO)NC(=O)[C@@H](NC(=O)[C@](C)(Cc1ccccc1)NC(=O)[C@H](CO)NC(=O)CNC(=O)[C@H](CCC(N)=O)NC(=O)[C@H](CO)NC(=O)[C@@H](N)Cc1c[nH]cn1)[C@@H](C)O)C(C)C)C(=O)N[C@@H](C)C(=O)N[C@@H](C)C(=O)N[C@@H](CCC(N)=O)C(=O)N[C@@H](CC(=O)O)C(=O)N[C@@](C)(Cc1ccccc1)C(=O)N[C@H](C(=O)N[C@@H](CCC(N)=O)C(=O)N[C@H](C(=O)N[C@H](C(=O)N[C@@H](C)C(=O)N[C@@H](CC(N)=O)C(N)=O)[C@@H](C)CC)[C@@H](C)CC)C(C)C)C(=O)O)C(=O)O [Peptide 89] (H-HSQGS[αMeF]TSDVSK[αMeF]LDSK([PEG2-PEG2-γGlu-γGlu-Palmitoyl])AAQD[αMeF]VQIIAN-NH2; N-terminus assumed)
1.2 | 11.85 | CCCCCCCCCCCCCC(=O)N[C@@H](CCC(=O)NCCOCCOCCC(=O)NCCOCCOCCC(=O)NCCCC[C@H](NC(=O)[C@H](CO)NC(=O)[C@H](CC(=O)O)NC(=O)[C@H](CC(C)C)NC(=O)[C@@H](NC(=O)[C@H](CCCCN)NC(=O)[C@H](CO)NC(=O)[C@@H](NC(=O)[C@H](CC(=O)O)NC(=O)[C@H](CO)NC(=O)[C@@H](NC(=O)[C@](C)(Cc1ccccc1)NC(=O)[C@H](CO)NC(=O)CNC(=O)[C@H](CCC(N)=O)NC(=O)[C@H](CO)NC(=O)[C@@H](N)Cc1c[nH]cn1)[C@@H](C)O)C(C)C)[C@@H](C)CC)C(=O)N[C@@H](C)C(=O)N[C@@H](C)C(=O)N[C@@H](CCC(N)=O)C(=O)N[C@@H](CC(=O)O)C(=O)N[C@@](C)(Cc1ccccc1)C(=O)N[C@H](C(=O)N[C@@H](CCC(N)=O)C(=O)NC(C)(C)C(=O)N[C@H](C(=O)N[C@H](C(=O)N[C@@H](CC(N)=O)C(=O)N[C@H](C(N)=O)[C@@H](C)O)[C@@H](C)CC)[C@@H](C)CC)C(C)C)C(=O)O [Peptide 122] (H-HSQGS[αMeF]TSDVSKILDSK([PEG2-PEG2-γGlu-Myristoyl])AAQD[αMeF]VQ[Aib]IINT-NH2; N-terminus assumed)
22.3 |  | CC(C)C[C@H](NC(=O)[C@H](Cc1c[nH]c2ccccc12)NC(=O)[C@H](CCCNC(=N)N)NC(=O)[C@@H](NC(=O)[C@H](Cc1ccccc1)NC(=O)[C@H](CC(=O)O)NC(=O)[C@H](CCCNC(=N)N)NC(=O)[C@H](C)NC(=O)[C@H](CCCNC(=N)N)NC(=O)[C@H](CCCCNC(=O)CC[C@H](NC(=O)CC[C@H](NC(=O)COCCOCCNC(=O)COCCOCCNC(=O)CC[C@H](NC(=O)CC[C@H](NC(=O)CCCCCCCCCCCCCCCCC(=O)O)C(=O)O)C(=O)O)C(=O)O)C(=O)O)NC(=O)[C@H](CO)NC(=O)[C@H](CC(=O)O)NC(=O)[C@H](CC(C)C)NC(=O)[C@](C)(Cc1ccccc1)NC(=O)[C@H](CCCCN)NC(=O)[C@H](CO)NC(=O)[C@@H](NC(=O)[C@H](CC(=O)O)NC(=O)[C@H](CO)NC(=O)[C@@H](NC(=O)[C@H](Cc1ccccc1)NC(=O)[C@@H](NC(=O)CNC(=O)[C@H](CCC(N)=O)NC(=O)C(C)(C)NC(=O)[C@@H](N)Cc1c[nH]cn1)[C@@H](C)O)[C@@H](C)O)C(C)C)C(C)C)C(=O)N[C@@H](CC(C)C)C(=O)N[C@@H](CCC(=O)O)C(=O)NC(C)(C)C(=O)NCC(=O)O [Peptide 136] (H-H[Aib]QGTFTSDVSK[αMeF]LDSK([γGlu-γGlu-AEEA-AEEA-γGlu-γGlu-C18 diacid])RARDFVRWLLE[Aib]G-OH; N-terminus assumed)
30.7 | 10.34 | CC(C)C[C@H](NC(=O)[C@H](Cc1c[nH]c2ccccc12)NC(=O)[C@H](CCCNC(=N)N)NC(=O)[C@@H](NC(=O)[C@H](Cc1ccccc1)NC(=O)[C@H](CC(=O)O)NC(=O)[C@H](CCCNC(=N)N)NC(=O)[C@H](C)NC(=O)[C@H](CCCNC(=N)N)NC(=O)[C@H](CCCCNC(=O)CC[C@H](NC(=O)CC[C@H](NC(=O)COCCOCCNC(=O)COCCOCCNC(=O)CC[C@H](NC(=O)CC[C@H](NC(=O)CCCCCCCCCCCCCCCCC(=O)O)C(=O)O)C(=O)O)C(=O)O)C(=O)O)NC(=O)[C@H](CO)NC(=O)[C@H](CC(=O)O)NC(=O)[C@H](CC(C)C)NC(=O)[C@](C)(Cc1ccccc1)NC(=O)[C@H](CCCCN)NC(=O)[C@H](CO)NC(=O)[C@@H](NC(=O)[C@H](CC(=O)O)NC(=O)[C@H](CO)NC(=O)[C@@H](NC(=O)[C@H](Cc1ccccc1)NC(=O)[C@@H](NC(=O)CNC(=O)[C@H](CCC(N)=O)NC(=O)C(C)(C)NC(=O)[C@@H](N)Cc1c[nH]cn1)[C@@H](C)O)[C@@H](C)O)C(C)C)C(C)C)C(=O)N[C@@H](CC(C)C)C(=O)N[C@@H](CCC(=O)O)C(=O)NC(C)(C)C(=O)NCC(=O)O [Peptide 144] (H-H[Aib]QGTFTSDVSK[αMeF]LDSK([γGlu-γGlu-AEEA-AEEA-γGlu-γGlu-C18 diacid])RARDFVRWLLE[Aib]G-OH; N-terminus assumed)
25.5 |  | CC(C)C[C@H](NC(=O)[C@H](Cc1c[nH]c2ccccc12)NC(=O)[C@H](CCCNC(=N)N)NC(=O)[C@@H](NC(=O)[C@H](Cc1ccccc1)NC(=O)[C@H](CC(=O)O)NC(=O)[C@H](CCC(N)=O)NC(=O)[C@H](C)NC(=O)[C@H](CCCNC(=N)N)NC(=O)[C@H](CCCCNC(=O)COCCOCCNC(=O)COCCOCCNC(=O)CC[C@H](NC(=O)CCCCCCCCCCCCCCCCC(=O)O)C(=O)O)NC(=O)[C@H](CO)NC(=O)[C@H](CC(=O)O)NC(=O)[C@H](CC(C)C)NC(=O)[C@](C)(Cc1ccccc1)NC(=O)[C@H](CCCCN)NC(=O)[C@H](CO)NC(=O)[C@@H](NC(=O)[C@H](CC(=O)O)NC(=O)[C@H](CO)NC(=O)[C@@H](NC(=O)[C@H](Cc1ccccc1)NC(=O)[C@@H](NC(=O)CNC(=O)[C@H](CCC(N)=O)NC(=O)C(C)(C)NC(=O)[C@@H](N)Cc1c[nH]cn1)[C@@H](C)O)[C@@H](C)O)C(C)C)C(C)C)C(=O)N[C@@H](CC(C)C)C(=O)NC(C)(C)C(=O)N[C@H](C(=O)N[C@@H](CCCCN)C(=O)O)[C@@H](C)O [Peptide 177]
